Read-outs that look alike come from different tables or passages of the source.
Columns and labels:
human BACE1 = human BACE1 (Homo sapiens, UniProt P56817); assay: Fluorescent kinetic assay, inhibition of BACE1 (WABC-6 peptide substrate); type: biochemical;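 further: fluorescence monitored at 320 nm excitation and 420 nm emission every 40 s over 30 min, with the substrate cleavage rate taken from the linear slope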
human BACE2 = biological target: T1, human BACE2 (Homo sapiens, UniProt Q9Y5Z0); assay: Fluorescent Kinetic Assay for Human Recombinant BACE 2 (selectivity BACE1/BACE2); type: biochemical; details: selectivity BACE1 over BACE2; 1.5 nM human BACE2, 25 μM substrate, pH 4.5;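 further: cleavage rate from the linear slope of fluorescence (excitation 320 nm, emission 420 nm) recorded every 40 s over 30 min at room temperature, sodium acetate buffer with 0.05% CHAPS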
T1 sequence (Q9Y5Z0 63-518): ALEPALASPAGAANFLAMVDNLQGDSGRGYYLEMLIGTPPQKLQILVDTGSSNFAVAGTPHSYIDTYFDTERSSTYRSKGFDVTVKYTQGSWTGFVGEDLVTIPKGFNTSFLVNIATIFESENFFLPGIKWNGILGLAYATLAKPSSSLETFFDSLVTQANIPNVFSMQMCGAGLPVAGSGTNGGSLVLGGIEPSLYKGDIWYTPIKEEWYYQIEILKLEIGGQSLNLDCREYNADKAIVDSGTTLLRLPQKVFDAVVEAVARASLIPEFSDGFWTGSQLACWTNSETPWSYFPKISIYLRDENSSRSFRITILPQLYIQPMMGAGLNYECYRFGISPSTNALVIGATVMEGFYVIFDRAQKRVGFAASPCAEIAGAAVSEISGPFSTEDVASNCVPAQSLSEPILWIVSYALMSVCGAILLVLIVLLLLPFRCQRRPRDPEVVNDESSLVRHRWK

[1] = 10 nM enzyme, 25 μM substrate WABC-6, pH 4.5, room temperature, read-out: IC50 (μM) BACE1

Chain of human BACE1 (P56817 46-501): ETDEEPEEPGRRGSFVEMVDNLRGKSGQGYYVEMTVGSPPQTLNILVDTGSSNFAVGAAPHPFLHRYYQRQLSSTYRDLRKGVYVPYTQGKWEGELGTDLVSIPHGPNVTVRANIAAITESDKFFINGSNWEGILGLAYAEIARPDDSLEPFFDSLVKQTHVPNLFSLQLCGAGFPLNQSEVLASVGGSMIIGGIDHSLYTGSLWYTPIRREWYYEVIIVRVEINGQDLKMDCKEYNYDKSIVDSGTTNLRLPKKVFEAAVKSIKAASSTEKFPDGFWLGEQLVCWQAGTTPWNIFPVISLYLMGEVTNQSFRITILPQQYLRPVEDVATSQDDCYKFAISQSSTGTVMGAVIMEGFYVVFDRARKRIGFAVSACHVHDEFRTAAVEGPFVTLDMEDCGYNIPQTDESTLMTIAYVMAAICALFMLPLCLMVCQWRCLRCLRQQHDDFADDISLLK

Structure (SMILES)	IC50 (human BACE1)	BACE1/BACE2 selectivity (human BACE2)	IC50 (human BACE1; [1])
COc1ccc(C2(c3ccc(C#N)c(-c4cccnc4)c3)N=C(N)N(C)C2=O)cc1C (centres unmarked) [Example 5, 4-[2-amino-4-(4-methoxy-3-methylphenyl)-1-methyl-5-oxo-4,5-dihydro-1H-imidazol-4-yl]-2-pyridin-3-ylbenzonitrile]	0.11 to 1 µM	–	–
CCN1C(=O)C(c2cccc(-c3cccnc3)c2)(c2ccc(OC)c(C)c2)N=C1N (centres unmarked) [Example 8]	–	II (II = 10-100-fold selectivity)	0.01 to 0.1 µM
COc1ccc(C2(c3cccc(-c4cnccn4)c3)N=C(N)N(C)C2=O)cc1C (centres unmarked) [Example 9]	–	II (II = 10-100-fold selectivity)	0.01 to 0.1 µM
Cc1cc(C2(c3cccc(-c4cccnc4)c3)N=C(N)N(C)C2=O)ccc1O (centres unmarked) [Example 10]	–	II (II = 10-100-fold selectivity)	0.01 to 0.1 µM
CCCOc1cc(C2(c3cccc(-c4cccnc4)c3)N=C(N)N(C)C2=O)ccc1OC (centres unmarked) [Example 16]	–	III (III = <10-fold selectivity)	0.01 to 0.1 µM
CCCCOc1cc(C2(c3cccc(-c4cccnc4)c3)N=C(N)N(C)C2=O)ccc1OC (centres unmarked) [Example 17]	–	III (III = <10-fold selectivity)	0.01 to 0.1 µM
COc1ccc(C2(c3cccc(-c4cccnc4)c3)N=C(N)N(C)C2=O)cc1OC(C)C (centres unmarked) [Example 18]	0.01 to 0.1 µM	II (II = 10-100-fold selectivity)	–
COc1ccc(C2(c3cccc(-c4cccnc4)c3)N=C(N)N(C)C2=O)cc1C#N (centres unmarked) [Example 20]	0.11 to 1 µM	III (III = <10-fold selectivity)	–
COc1ccc(C2(c3cccc(-c4cccnc4)c3)N=C(N)N(C)C2=O)cc1F (centres unmarked) [Example 21]	0.01 to 0.1 µM	–	–
CCOc1cc(C2(c3cccc(-c4cccnc4)c3)N=C(N)N(C)C2=O)ccc1OC (centres unmarked) [Example 24]	0.01 to 0.1 µM	II (II = 10-100-fold selectivity)	–
CN1C(=O)C(c2ccc(OC(F)(F)F)cc2)(c2cccc(-c3ncccn3)c2)N=C1N (centres unmarked) [Example 37, 2-Amino-3-methyl-5-(3-pyrimidin-2-ylphenyl)-5-[4-(trifluoromethoxy)phenyl]-3,5-dihydro-4H-imidazol-4-one]	–	III (III = <10-fold selectivity)	0.01 to 0.1 µM
CN1C(=O)C(c2ccc(OC(F)(F)F)c(F)c2)(c2ccc(F)c(-c3cncc(F)c3)c2)N=C1N (centres unmarked) [Example 41, 2-Amino-5-[4-fluoro-3-(5-fluoropyridin-3-yl)phenyl]-5-[3-fluoro-4-(trifluoromethoxy)phenyl]-3-methyl-3,5-dihydro-imidazol-4-one]	–	II (II = 10-100-fold selectivity)	0.11 to 1 µM
CN1C(=O)C(c2ccc(OC(F)(F)F)c(F)c2)(c2ccc(F)c(-c3cccnc3F)c2)N=C1N (centres unmarked) [Example 43]	–	II (II = 10-100-fold selectivity)	0.01 to 0.1 µM
CN1C(=O)C(c2ccc(OC(F)(F)F)cc2)(c2cccc(-c3cncnc3)c2F)N=C1N (centres unmarked) [Example 48]	–	II (II = 10-100-fold selectivity)	> 1 µM
COc1ncccc1-c1cccc(C2(c3ccc(OC(F)(F)F)cc3)N=C(N)N(C)C2=O)c1 (centres unmarked) [Example 52]	–	II (II = 10-100-fold selectivity)	0.11 to 1 µM
COc1ccc(C2(c3ccc(F)c(-c4ccc(F)nc4)c3)N=C(N)N(C)C2=O)cc1C(F)(F)F (centres unmarked) [Example 57]	–	II (II = 10-100-fold selectivity)	0.01 to 0.1 µM
COc1ccc(C2(c3ccc(F)c(-c4cccnc4F)c3)N=C(N)N(C)C2=O)cc1C(F)(F)F (centres unmarked) [Example 58]	–	II (II = 10-100-fold selectivity)	0.01 to 0.1 µM
COc1ccc(C2(c3cccc(-c4cccnc4F)c3)N=C(N)N(C)C2=O)cc1C (centres unmarked) [Example 59]	–	II (II = 10-100-fold selectivity)	0.01 to 0.1 µM
COc1ccc(C2(c3ccc(F)c(-c4cncc(F)c4)c3)N=C(N)N(C)C2=O)cc1 (centres unmarked) [Example 60]	–	II (II = 10-100-fold selectivity)	0.01 to 0.1 µM
COc1ccc(C2(c3ccc(F)c(-c4cncc(F)c4)c3)N=C(N)N(C)C2=O)cc1C (centres unmarked) [Example 61]	–	II (II = 10-100-fold selectivity)	0.01 to 0.1 µM
COc1ccc(C2(c3ccc(F)c(-c4cccnc4F)c3)N=C(N)N(C)C2=O)cc1 (centres unmarked) [Example 62]	–	II (II = 10-100-fold selectivity)	0.01 to 0.1 µM
COc1ccc(C2(c3ccc(F)c(-c4cncnc4)c3)N=C(N)N(C)C2=O)cc1 (centres unmarked) [Example 63]	–	I (I = >100-fold selectivity)	0.01 to 0.1 µM
CN1C(=O)C(c2ccc(OC(F)(F)F)cc2)(c2cccc(-c3ccc(F)nc3)c2)N=C1N (centres unmarked) [Example 65]	–	II (II = 10-100-fold selectivity)	0.11 to 1 µM

Structure (SMILES)	IC50 (human BACE1)	BACE1/BACE2 selectivity (human BACE2)	IC50 (human BACE1; [1])
CCOc1ccc(C2(c3cccc(-c4cncc(OC)c4)c3)N=C(N)N(C)C2=O)cc1OCC (centres unmarked) [Example 67]	–	III (III = <10-fold selectivity)	0.01 to 0.1 µM
CCOc1ccc(C2(c3cccc(-c4cccnc4OC)c3)N=C(N)N(C)C2=O)cc1OCC (centres unmarked) [Example 68]	–	III (III = <10-fold selectivity)	0.11 to 1 µM
CCOc1ccc(C2(c3cccc(-c4ccc(F)nc4)c3)N=C(N)N(C)C2=O)cc1OCC (centres unmarked) [Example 69]	–	III (III = <10-fold selectivity)	0.01 to 0.1 µM
CCOc1ccc(C2(c3cccc(-c4cccnc4F)c3)N=C(N)N(C)C2=O)cc1OCC (centres unmarked) [Example 70]	–	II (II = 10-100-fold selectivity)	0.01 to 0.1 µM
COc1cncc(-c2cc(C3(c4ccc(OC(F)(F)F)cc4)N=C(N)N(C)C3=O)ccc2F)c1 (centres unmarked) [Example 71]	–	III (III = <10-fold selectivity)	0.01 to 0.1 µM
COc1ncccc1-c1cc(C2(c3ccc(OC(F)(F)F)cc3)N=C(N)N(C)C2=O)ccc1F (centres unmarked) [Example 72]	–	II (II = 10-100-fold selectivity)	0.11 to 1 µM
CN1C(=O)C(c2ccc(OC(F)(F)F)cc2)(c2ccc(F)c(-c3ccc(F)nc3)c2)N=C1N (centres unmarked) [Example 73]	–	II (II = 10-100-fold selectivity)	0.11 to 1 µM
CN1C(=O)C(c2ccc(OC(F)(F)F)cc2)(c2ccc(F)c(-c3cccnc3F)c2)N=C1N (centres unmarked) [Example 74]	–	II (II = 10-100-fold selectivity)	0.01 to 0.1 µM
COc1ccc(C2(c3cccc(-c4cccnc4OC)c3)N=C(N)N(C)C2=O)cc1C (centres unmarked) [Example 75]	–	II (II = 10-100-fold selectivity)	0.11 to 1 µM
CN1C(=O)C(c2ccc(OC(F)(F)F)c(F)c2)(c2ccc(F)c(-c3cnccc3F)c2)N=C1N (centres unmarked) [Example 78]	–	II (II = 10-100-fold selectivity)	0.01 to 0.1 µM
COc1ccc(C2(c3ccc(F)c(-c4cncc(Cl)c4)c3)N=C(N)N(C)C2=O)cc1 (centres unmarked) [Example 80]	–	III (III = <10-fold selectivity)	0.01 to 0.1 µM
CCOc1ccc(C2(c3cccc(-c4cnccc4F)c3)N=C(N)N(C)C2=O)cc1OCC (centres unmarked) [Example 81]	–	II (II = 10-100-fold selectivity)	0.01 to 0.1 µM
CN1C(=O)C(c2ccc(OC(F)(F)F)cc2)(c2cccc(-c3cnccc3F)c2)N=C1N (centres unmarked) [Example 82]	–	II (II = 10-100-fold selectivity)	0.01 to 0.1 µM
COc1ccc(C2(c3ccc(F)c(-c4cnccc4F)c3)N=C(N)N(C)C2=O)cc1 (centres unmarked) [Example 83]	–	II (II = 10-100-fold selectivity)	0.01 to 0.1 µM
CN1C(=O)C(c2ccc(OC(F)(F)F)cc2)(c2cc(-c3cccnc3)ccc2F)N=C1N (centres unmarked) [Example 84]	–	I (I = >100-fold selectivity)	0.11 to 1 µM
CN1C(=O)C(c2ccc(OC(F)F)cc2)(c2ccc(F)c(-c3ccc(F)nc3)c2)N=C1N (centres unmarked) [Example 88]	–	II (II = 10-100-fold selectivity)	0.01 to 0.1 µM
CN1C(=O)C(c2ccc(OC(F)F)cc2)(c2cccc(-c3ccc(F)nc3)c2)N=C1N (centres unmarked) [Example 90]	–	II (II = 10-100-fold selectivity)	0.01 to 0.1 µM
CN1C(=O)C(c2ccc(OC(F)F)cc2)(c2cccc(-c3cc(F)cnc3F)c2)N=C1N (centres unmarked) [Example 91]	–	II (II = 10-100-fold selectivity)	0.01 to 0.1 µM
CN1C(=O)C(c2ccc(OC(F)F)cc2)(c2ccc(F)c(-c3cc(F)cnc3F)c2)N=C1N (centres unmarked) [Example 92]	–	II (II = 10-100-fold selectivity)	0.01 to 0.1 µM
CN1C(=O)C(c2ccc(OC(F)(F)F)cc2)(c2ccc(F)c(-c3cnn(C)c3)c2)N=C1N (centres unmarked) [Example 100, 2-Amino-5-[4-fluoro-3-(1-methyl-1H-pyrazol-4-yl)phenyl]3-methyl-5-[4-(trifluoromethoxy)phenyl]-3,5-dihydro-4H-imidazol-4-one]	–	III (III = <10-fold selectivity)	0.11 to 1 µM
COc1ccc([C@@]2(c3cccc(-c4cccnc4F)c3)N=C(N)N(C)C2=O)cc1C [Example 102A, (5R)-2-Amino-5-[3-(2-fluoropyridin-3-yl)phenyl]-5-(4-methoxy-3-methylphenyl]-3-methyl-3,5-dihydro-4H-imidazol-4-one]	0.11 to 1 µM	–	–
COc1ccc([C@]2(c3cccc(-c4cccnc4F)c3)N=C(N)N(C)C2=O)cc1C [Example 102B, (5S)-2-Amino-5-[3-(2-fluoropyridin-3-yl)phenyl]-5-(4-methoxy-3-methylphenyl]-3-methyl-3,5-dihydro-4H-imidazol-4-one]	0.01 to 0.1 µM	–	–

Reference: patent US7700602B2, “Amino-5,5-diphenylimidazolone derivatives for the inhibition of β-secretase” (Wyeth LLC, priority 2004, dated 2010)
